Marks after values point to notes of the source that are not given here.

Assay [1] relates to pinealectomized rats treated with haloperidol. The conditions noted are these: 4 mg, i.p., within one hour; cited from earlier work.
Assay [2] has as its system patients with tardive dyskinesia on long-term neuroleptic treatment. The assay can be described thus: Randomized, double blind, crossover trial of melatonin on tardive dyskinesia severity, Abnormal Involuntary Movements Scale (AIMS). Format: in vivo, human. On the procedure:
The effect of melatonin on tardive dyskinesis was determined on a trial population of 22 patients, of whom 6 were schizoaffective and 16 were paranoid schizophrenics. All patients, who had been receiving long-term neuroleptic treatment, were diagnosed according to DSM IV. They consisted of 11 men and 11 women, age 39±15 years, age range 17-61 years, of whom 19 completed the trial and are included in the results. In a randomized, double blind, crossover manner, subjects were given daily either 2×5 mg melatonin in a controlled-release formulation (Circadin™, Neurim Pharmaceuticals, Israel), two hours before bedtime, or a placebo of identical appearance, for a period of six weeks, with a four week placebo wash-out between two treatment periods. […] During the last week of each treatment period, TD severity was assessed using the Abnormal Involuntary Movements Scale (AIMS) and comparisons were made between placebo or melatonin treatments, and baseline.

Turning to `COc1ccc2[nH]cc(CCNC(C)=O)c2c1` [melatonin], the “severity of movements after melatonin” value in assay [1] is “non-significant reduction of the severity of movements”. Also, the “T-test (t21), AIMS sub-scale 5” value in assay [2] (arms, hands, baseline/administration difference, placebo vs. melatonin) was −1.78. Further, the “p of T-test, AIMS sub-scale 5” value in assay [2] (arms, hands, placebo vs. melatonin) turned out to be 0.09. In assay [2] (change from baseline after melatonin, placebo −1±1.3), the “decrease, ie. improvement (AIMS), after administration” value was −3±2.1. Moreover, the “T-test (t21), AIMS sub-scale 1” value in assay [2] (facial and oral movements, baseline/administration difference, placebo vs. melatonin) was −1. The “p of T-test, AIMS sub-scale 1” value in assay [2] (facial and oral movements, placebo vs. melatonin) is 0.33. In addition, in assay [2] (highly significant), the “p (MANOVA) of decrease after melatonin compared with placebo” value is on record as below 0.0001. Further, in assay [2] (implication due to abnormal movements, baseline/administration difference, placebo vs. melatonin), the “T-test (t21), AIMS sub-scale 9” value is recorded as −1.14. In addition, the “p of T-test, AIMS sub-scale 9” value in assay [2] (implication due to abnormal movements, placebo vs. melatonin) was determined as 0.27. Also, in assay [2] (jaw, baseline/administration difference, placebo vs. melatonin), the “T-test (t21), AIMS sub-scale 3” value is −1.14. Besides, the “p of T-test, AIMS sub-scale 3” value in assay [2] (jaw, placebo vs. melatonin) worked out at 0.27. For the same compound, the “T-test (t21), AIMS sub-scale 6” value in assay [2] (legs, knees, baseline/administration difference, placebo vs. melatonin) was −2.81. Also, the “p of T-test, AIMS sub-scale 6” value in assay [2] (legs, knees, placebo vs. melatonin, significant outcome) is recorded as 0.01*. Also, the “T-test (t21), AIMS sub-scale 2” value in assay [2] (lips and perioral area, baseline/administration difference, placebo vs. melatonin) was −3.92. In assay [2] (lips and perioral area, placebo vs. melatonin, significant outcome), the “p of T-test, AIMS sub-scale 2” value is given as <0.001*. For the same compound, in assay [2] (neck, shoulder, baseline/administration difference, placebo vs. melatonin), the “T-test (t21), AIMS sub-scale 7” value is recorded as −2.49. Further, in assay [2] (neck, shoulder, placebo vs. melatonin, significant outcome), the “p of T-test, AIMS sub-scale 7” value is 0.02*. For the same compound, the “T-test (t21), AIMS sub-scale 10” value in assay [2] (patient's awareness, baseline/administration difference, placebo vs. melatonin) is recorded as “delta = 0”. The “T-test (t21), AIMS sub-scale 11” value in assay [2] (problem with teeth, baseline/administration difference, placebo vs. melatonin) is listed as “delta = 0”. Also, the “T-test (t21), AIMS sub-scale 8” value in assay [2] (severity of abnormal movements, baseline/administration difference, placebo vs. melatonin) is on record as −1.82. Moreover, in assay [2] (severity of abnormal movements, placebo vs. melatonin), the “p of T-test, AIMS sub-scale 8” value is on record as 0.08. For the same compound, in assay [2] (tongue, baseline/administration difference, placebo vs. melatonin), the “T-test (t21), AIMS sub-scale 4” value is listed as −0.81. Further, in assay [2] (tongue, placebo vs. melatonin), the “p of T-test, AIMS sub-scale 4” value is given as 0.43.

Source of the values: US6566389B1, “Therapeutic uses of melatonin” (Neurim Pharmaceuticals (1991) Ltd., priority 1999, dated 2003).
